Where a name gives a salt, the structure may show the parent alone.
Experiments:
Solubility in water = format: physicochemical
female rats = assay: Test for possible teratogenic action; format: in vivo, rat; conditions: 50 mg/Kg from the beginning up to the 19-20 day of gestation
Method: The subject compound was also tested with respect to a possible teratogenic action, by administering to female rats a dose of 50 mg/Kg from the beginning up to the 19-20 day of gestation.

[1] = tested on: male rats, of the Sprague-Dawley strain; assay: Anti-inflammatory activity in the egg white test; format: in vivo, rat; conditions: two oral doses of 100 mg/Kg with a 30 minute interval, 0,1 ml of egg white in the rear paw, measured 3 and 4 hours later
Method: (§1) The tests used for the evaluation of the anti-inflammatory activity were respectively that of the kaolin and that of the egg white.
For each compound 16 male rats, of the Sprague-Dawley strain and weighing 300 g, were used. The animals were divided- in four groups each comprising four rats. The first group served as a control, whereas the other three groups were orally administered, with a 30 minute interval, with two doses of 50,75 and 100 mg/Kg of the test compound.
The last administration was immediately followed by the inoculation of 0,1 ml of egg white in the rear paw of all the animals, including the controls. The measurements of the diameters of the articulations were effected 3 and 4 hours later.

[2] = tested on: rats of male sex, of the Sprague-Dawley strain; assay: Anti-inflammatory activity in the kaolin test; format: in vivo; conditions: rat, 10% suspension of kaolin, diameter of the articulation
Method: as §1
a) Anti-inflammatory activity in the kaolin test. For each compound 16 rats of male sex, of the Sprague-Dawley strain and of 200-250 g of body weight, were used. The rats were divided into four groups each comprising four rats. All the animals were injected with a 10% suspension of kaolin. The first group was used as the control, whereas the other three groups were administered with doses respectively of 50,75 and 100 mg/Kg. The measurements of the diameters of the articulation were effected one hour after the kaolin injection and then every 24 hours.
The inoculation of kaolin caused an increase of the tibio-tarsal articulation which has been partially limited by the treatment with the test compound.

[3] = tested on: Sprague-Dawley albine rats; assay: Acute toxicity by oral route in the rat; format: in vivo; conditions: evaluated ten days after administration
Method: (§2) Sprague-Dawley albine rats having an average weight of 120 + 5 g and of both sexes were used.
(§3) For each compound 40 rats were treated. The test compound as a suspension in 5% arabic gum was administered through a gastric probe.
(§4) The results were evaluated ten days after the administration.

[4] = Acute toxicity by oral route in the rat; format: in vivo; conditions: rat, in vivo, rat, evaluated ten days after administration
Method: as §2, §3, §4

[5] = TREATMENT 900 (900 mg/Kg elsewhere in the source), oral by gastric probe

For `CC(C)Cc1ccc(C(C)C(=O)SC(C)C(=O)NCC(=O)O)cc1` (stereo not shown) [calcium salt], the solubility in water (Solubility in water) was “insoluble”.

With `CC(C)Cc1ccc(C(C)C(=O)SC(C)C(=O)NCC(=O)O)cc1` (stereo not shown) [magnesium salt] the solubility in water (Solubility in water) was “insoluble”.

For `CC(C)Cc1ccc(C(C)C(=O)SC(C)C(=O)NCC(=O)O)cc1` (stereo not shown) [potassium salt], the solubility in water (Solubility in water) was “highly soluble in water”.

In the case of `CC(C)Cc1ccc(C(C)C(=O)SC(C)C(=O)NCC(=O)O)cc1` (stereo not shown) [sodium salt], the solubility in water (Solubility in water) is reported as “highly soluble in water”.

With `CC(C)Cc1ccc(C(C)C(=O)SC(C)C(=O)NCC(=O)O)cc1` (stereo not shown) [test compound] the “reabsorption number and the foeti in the treated rats with respect to the controls” value (female rats) was “no significant difference”, the “weight of the foeti” value (female rats) was “did not revealed whatsoever anomaly” and the “ANTI-INFLAMMATORY ACTIVITY %” value [1] was 26%. The “ANTI-INFLAMMATORY ACTIVITY %” value ([2]; 75 mg/kg) was 10%, the “ANTI-INFLAMMATORY ACTIVITY %” value ([2]; 100 mg/kg) was 26% and the dead/living ([3]; TREATMENT 150 (dose unit not given), oral by gastric probe, suspension in 5% arabic gum) was 0/8. The dead/living ([3]; TREATMENT 300, oral by gastric probe) was 0/8, the dead/living ([3]; TREATMENT 450, oral by gastric probe) was 0/8 and the dead/living ([3]; TREATMENT 600, oral by gastric probe) was 0/8. For the same compound, the dead/living [3, 5] was 0/8, the LD50 at 240 h ([4]; po) was greater than 900 mg/kg and the mortality at 240 h [4, 5] was 0%.

— patent EP0052909A1, “Derivative of alfa-mercaptopropionilglicine having therapeutical activity, process for its preparation and related pharmaceutical compositions” (Real S.a.s. di Alberto Reiner & C., priority 1980, dated 1982)
